In PMC2649375 (Journal of molecular neuroscience : MN, 2006):
Where a chain is given by its changes, count along the chain named.

Assays:
[1] = target: T1, P391R mutant 5-HT3 receptor (Mus musculus, UniProt P23979, P402R); settings: maximum number of binding sites, n = 5
T1 sequence (P23979 24-483 isoform P23979-2 P396R limits assumed): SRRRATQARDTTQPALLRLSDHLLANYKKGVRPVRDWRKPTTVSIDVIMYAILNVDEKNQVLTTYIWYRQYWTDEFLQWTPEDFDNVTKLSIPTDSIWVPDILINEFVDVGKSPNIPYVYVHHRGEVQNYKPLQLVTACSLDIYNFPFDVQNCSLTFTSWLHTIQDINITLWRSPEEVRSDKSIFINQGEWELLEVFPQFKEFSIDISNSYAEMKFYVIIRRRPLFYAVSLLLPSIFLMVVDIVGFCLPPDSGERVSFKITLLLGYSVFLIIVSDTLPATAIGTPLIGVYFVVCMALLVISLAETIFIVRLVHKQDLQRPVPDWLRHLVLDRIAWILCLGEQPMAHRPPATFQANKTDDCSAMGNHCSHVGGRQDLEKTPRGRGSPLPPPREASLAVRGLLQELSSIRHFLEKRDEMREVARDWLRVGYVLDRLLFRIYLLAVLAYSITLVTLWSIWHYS

wild-type 5-HT3 receptor = target: T2, wild-type 5-HT3 receptor (Mus musculus, UniProt P23979); settings: maximum number of binding sites, n = 5
T2 sequence (P23979 24-483 isoform P23979-2 limits assumed): T1 sequence (P23979 24-483 isoform P23979-2 P396R limits assumed) with R373P

[2] = target: T3, R344H mutant 5-HT3 receptor (Mus musculus, UniProt P23979, R349H); settings: maximum number of binding sites, n = 9
T3 sequence (P23979 24-483 isoform P23979-2 R349H limits assumed): T1 sequence (P23979 24-483 isoform P23979-2 P396R limits assumed) with R326H, R373P

Bmax [1]: 353 ± 113 fmol/mg
Bmax (wild-type 5-HT3 receptor): 567 ± 149 fmol/mg
Bmax [2]: 853 ± 232 fmol/mg
Structure (SMILES): CN1C2CCCC1CC(NC(=O)c1nn(C)c3ccccc13)C2 (stereo not drawn) [[^3H]Granisetron]
